Source: ChEMBL document CHEMBL1201862, “PubChem BioAssay data set” (2004)
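Tested at 5 concentrations; 48 h exposure; 96-well plates; endpoints linearly interpolated, else capped at highest concentration. GI50: concentration for 50% inhibition of growth.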 Calls of active or inactive are those of the source. Cut-off read from the data, not from the text of the source: active = GI50 up to about 1.1 µM and inactive = higher.

Experiments:
Experiment in all cases: inhibition of tumour cell growth, NCI panel, 48 h
[1] = system: MDA-MB-231
[2] = system: SW-620
[3] = system: MCF7
[4] = system: UACC-257
[5] = system: RXF 393
[6] = system: PC-3
[7] = system: U-251
[8] = system: UACC-62
[9] = system: LOX IMVI
[10] = system: RPMI-8226
[11] = system: SK-MEL-28
[12] = system: MOLT-4
[13] = system: DU-145
[14] = system: CAKI-1
[15] = system: MDA-N
[16] = system: SK-OV-3
[17] = system: IGROV-1
[18] = system: HCC 2998
[19] = system: SF-295
[20] = system: T47D

Measured: GI50

CCN(CC)c1ccc2c(c1)OC(=O)C(c1nnc(-c3ccc([N+](=O)[O-])cc3)o1)C2 (stereo not given)
inactive: [1] > 100 µM | [2] > 100 µM | [3] > 100 µM | [4] > 100 µM | [5] > 100 µM | [6] > 100 µM | [7] > 100 µM | [8] > 100 µM | [9] > 100 µM | [10] > 100 µM | [11] > 100 µM | [12] > 100 µM | [13] > 100 µM | [14] > 100 µM | [15] > 100 µM | [16] > 100 µM | [17] > 100 µM | [18] > 100 µM | [19] > 100 µM

NC1=C(N2CCCCC2)C(=O)NC2=N/C(=C\c3ccco3)C(=O)N21
inactive: [1] > 100 µM | [2] > 100 µM | [4] > 100 µM | [5] > 100 µM | [7] > 100 µM | [9] > 100 µM | [10] > 100 µM | [11] > 100 µM | [12] > 100 µM | [13] > 100 µM | [14] > 100 µM | [15] > 100 µM | [16] > 100 µM | [17] > 100 µM | [20] > 100 µM | [19] > 100 µM

Cn1c(=O)c2c(nc3n2CCCC(=O)N3CC(O)CCl)n(C)c1=O (stereo not given)
inactive: [2] > 100 µM | [3] > 100 µM | [4] > 100 µM | [5] > 100 µM | [6] > 100 µM | [7] > 100 µM | [8] > 100 µM | [9] > 100 µM | [10] > 100 µM | [11] > 100 µM | [12] > 100 µM | [13] > 100 µM | [14] > 100 µM | [15] > 100 µM | [16] > 100 µM | [17] > 100 µM | [20] > 100 µM | [18] > 100 µM | [19] > 100 µM

CC1CCCN(CP(=O)(c2ccccc2)c2ccccc2)C1 (stereo not given)
inactive: [1] > 100 µM | [2] > 100 µM | [3] > 100 µM | [4] > 100 µM | [5] > 100 µM | [6] > 100 µM | [7] > 100 µM | [8] > 100 µM | [9] > 100 µM | [10] 43.5 µM | [11] > 100 µM | [13] > 100 µM | [14] > 100 µM | [15] > 100 µM | [16] > 100 µM | [17] > 100 µM | [18] 52.5 µM | [19] > 100 µM

Cc1ccsc1/C=N/Nc1ccc2ccccc2n1
inactive: [2] 85.1 µM | [3] 11.4 µM | [4] 6.12 µM | [5] 30.5 µM | [6] 19.6 µM | [7] 49 µM | [8] 25.1 µM | [9] 24.2 µM | [10] 48.8 µM | [11] 80.4 µM | [12] 8.04 µM | [13] 48.9 µM | [14] 17.5 µM | [15] 43.4 µM | [16] 16.5 µM | [17] 8.26 µM | [20] > 100 µM | [18] 24.1 µM | [19] 11.1 µM

Nc1n[nH]c2nc3ccc(C(F)(F)F)cc3nc12
inactive: [1] 43.6 µM | [2] 19.3 µM | [3] 15.3 µM | [4] 21.8 µM | [5] 16.4 µM | [6] 25.9 µM | [7] 39.5 µM | [8] 21 µM | [9] 18.6 µM | [10] 62.2 µM | [11] 21.1 µM | [12] 43.5 µM | [13] 16.7 µM | [14] 31.5 µM | [15] 35.3 µM | [16] 20.5 µM | [17] 21.9 µM | [18] 37.7 µM | [19] 24.5 µM

CN(C)CCCNC(=O)c1cc(NC(=O)c2cc(NC(=O)CCCn3c4ccccc4c4ccccc43)cn2C)cn1C
inactive: [2] 7.94 µM | [3] 5.89 µM | [4] 15.9 µM | [5] 12.6 µM | [6] 19.2 µM | [7] 11.4 µM | [9] 6.59 µM | [10] 3.08 µM | [11] 21.6 µM | [12] 2.02 µM | [13] 17.9 µM | [14] 19.1 µM | [16] 12 µM | [17] 26.5 µM | [20] 7.03 µM | [18] 5.52 µM | [19] 18.5 µM

O=C(CC(C(=O)c1ccsc1)c1ccccc1)c1ccccc1 (stereo not given)
inactive: [2] > 100 µM | [3] > 100 µM | [4] > 100 µM | [5] > 100 µM | [7] 95.9 µM | [8] 71.1 µM | [9] > 100 µM | [10] > 100 µM | [11] 7.28 µM | [12] > 100 µM | [13] > 100 µM | [14] > 100 µM | [15] > 100 µM | [16] > 100 µM | [17] > 100 µM | [20] 20.2 µM | [18] > 100 µM | [19] 76.9 µM
